{"source": "patent US20160331743A1", "about": "(UROGEN PHARMA LTD, priority 2014, published 2016)", "system": "carcinoma in situ (CIS) bladder cancer", "settings": "imiquimod 0.4%, once weekly for 6 weeks", "note": "“Also recorded” adds a separate entry of the source. Like-named read-outs stand apart in the source and are kept apart here.", "source_text": "Patients who have been diagnosed with CIS bladder cancer are potential candidates for the study. The CIS lesion(s) may be primary, secondary, or recurrent, and may be concomitant to a Ta or T1 lesion, provided the Ta or T1 lesion has been fully resected.\nAfter provision of written informed consent, patients are to be evaluated for study eligibility during the screening period within 28 days (4 weeks) before Day 0 (i.e., the first day of study drug administration). Screening evaluations to be performed include medical history, physical examination, vital signs, Eastern Cooperative Oncology Group (ECOG) performance status, hematology and clinical chemistry, and urinalysis with culture. Screening evaluations also include a cystoscopic examination of the bladder with mapping and biopsy/ies of all suspicious areas between Days −28 and −14, followed by a bladder washing for cytology. Patients who have undergone such examinations as part of the diagnostic process outside of the study are not required to undergo the procedures again, provided the examinations occurred within the specified timeframe and positive slides are available for a central pathology and cytology review.\nIn cases with no visible lesions, at least one biopsy will be taken at the prior positive site and at least 1 additional random biopsy will be taken. Response to treatment will be determined based on urine cytology and tissue sample histology findings.\nPatients meeting all of the following criteria were considered eligible for study entry: • 1. Males or female patient is aged ≧18 years. • 2. Patient has pathologically-proven, recurrent, primary, secondary, or concomitant carcinoma in situ disease, defined by having either CIS alone or Ta or T1 with CIS, provided the Ta or T1 lesion(s) has/have been fully resected. In cases with T1 tumor lesions, muscularis propria tissue should be in the resected specimen to confirm that it is tumor-free. • 3. Patient has undergone mapping of the bladder between Days −28 and −14, with at least one biopsy providing pathological confirmation of CIS of the bladder. • 4. Patient has undergone bladder washing for cytology between Days −28 and −1. In patients in whom Ta or T1 lesion(s) were resected, the bladder washing must have occurred after the resection. • 5. Patient has an ECOG performance status 0-2. • 6. Patient has adequate bone marrow, hepatic, and renal function within 4 weeks before Day 0.", "data": [{"smiles": "CC(C)Cn1cnc2c(N)nc3ccccc3c21", "note": "[imiquimod, 1-Isobutyl-1H-imidazo[4,5-c]quinolin-4-amine]", "values": [{"measurement": "Summary (response to treatment)", "setting": "Patient 1 (BCG refractory, CIS), 50 mL intravesical", "result": "Responder"}, {"measurement": "Histology post treatment", "setting": "Patient 1 (prior BCG, CIS prior to treatment), 200 mg in 50 mL intravesical, assessed 5 to 7 weeks after last dose", "result": "no tumor was detecable"}, {"measurement": "Tumour detectable in follow-up evaluation", "setting": "Patient 1, preliminary results, 50 mL intravesical", "result": "no tumour was detectable"}, {"measurement": "Summary (response to treatment)", "setting": "Patient 2 (prior chemo, BCG; CIS), 50 mL intravesical, evaluation still ongoing", "result": "partial responder"}, {"measurement": "Histology post treatment", "setting": "Patient 2 (prior chemotherapy, BCG, 9x TURBT, CIS prior to treatment), 50 mL intravesical", "result": "still CIS detected and CIS"}, {"measurement": "Cytology post treatment", "setting": "Patient 3 (no prior treatment), 50 mL intravesical", "result": "no tumor was detected any more"}, {"measurement": "Summary (response to treatment)", "setting": "Patient 3 (no prior treatment, CIS + papillary cancer), 50 mL intravesical", "result": "Responder"}, {"measurement": "Histology post treatment", "setting": "Patient 3 (no prior treatment, CIS + papillary high and low grade cancer prior to treatment), 50 mL intravesical", "result": "no tumor was detected any more; also recorded: No tumor"}, {"measurement": "Histology post treatment", "setting": "Patient 4 (prior TURB, low grade prior to treatment; had no CIS bladder cancer, excluded from study), 50 mL intravesical", "result": "No tumor"}, {"measurement": "Histology post treatment", "setting": "Patient 5 (prior BCG/Mitomycin, CIS prior to treatment), 50 mL intravesical", "result": "no tumor was detectable"}, {"measurement": "Summary (response to treatment)", "setting": "Patient 5 (prior BCG/Mitomycin, CIS), 50 mL intravesical", "result": "Responder"}, {"measurement": "Number of patients with complete remission of the CIS bladder cancer as assessed by histology", "setting": "of the 5 patients analyzed (patients 1, 3, 4, 5 counted), 50 mL intravesical", "result": "Four"}]}]}
